This note sets out measurements from patent US20220370534A1, “EXTERNAL COMPOSITION FOR SKIN HAVING ITCHING RELIEVING EFFECT” (YANGSHENGTANG (ANJI) COSMETICS CO., LTD., priority 2019, published 2022).

The test system of the experiment is mast cells. Description: Release of interleukin-4 (IL-4) from mast cells stimulated with Compound 48/80. It counts as cell-based. Particulars: sample 4 h, then Compound 48/80 20 mg/L 2 h, 8 duplicate wells, model group 67.6 ± 9.9, control group 34.4 ± 7.9. The protocol:
According to the following test method, the effects of the […] samples A-E as prepared above on the release of IL-4 from mast cells were tested.
Experimental principle: The specific antigen is crosslinked with the IgE antibody bound to the cell membrane, resulting in cell activation and rapid secretion of inflammatory mediators related to granulation (histamine, IL-4, IL-13, etc.). […] In this study, Compound 48/80 was used to stimulate mast cells to degranulate and release the inflammatory mediator IL-4 to investigate the protective efficacy of the test samples on the allergic reaction of mast cells.
Experimental materials: Mast cells were provided by the Animal Center of Zhejiang Academy of Medical Sciences. […]
Experimental method: Each of samples was prepared using RPMI1640 medium, and each of samples was provided with 8 duplicate wells. Mast cells were inoculated into a 96-well culture plate at a density of 5×10^6/mL, 90 μL per well, and added with 10 μL/well of a corresponding sample; cultured in a 5% CO2 incubator at 37° C., and taken out after 4 h; in addition to the control group, the other groups were added with a stimulus 48/80 (final concentration 20 mg/L), and continued to incubate in an incubator at 37° C. for 2 h, and then centrifuged at 1500 rpm for 5 mins to get the supernatant, and the content of IL-4 in the supernatant was detected by Elisa (interleukin-4) kit.

As to `O=C(O)c1cc(=O)c2c(OCC(O)COc3cccc4oc(C(=O)O)cc(=O)c34)cccc2o1` [Positive drug, sodium cromoglycate], the “Release % (IL-4 release from cell models)” value worked out at 44.2 ± 12.3%.
